Test: Absorption maximum of asymmetric sensitizers
Format: physicochemical
Source text: The asymmetric sensitizers AS-02, AS-03, AS-04 and AS-05 were obtained using a similar preparation method. The asymmetric sensitizers AS-01 to AS-05 are given in Table 2 together with their absorption maximum (Abs.Max (nm)) and their melting point (° C.).

Row | Structure (SMILES) | Abs. Max
1 | CCCCC(CC)COc1c(OC)cc(/C=C/c2ccc(/C=C/c3cc(OC)c(OC(C)CC)c(OC)c3)cc2)cc1OC (centres unmarked) [AS-01] | 371 nm
2 | CCC(C)Oc1c(OC)cc(/C=C/c2ccc(/C=C/c3cc(OC)c(OC(CC)CC)c(OC)c3)cc2)cc1OC (centres unmarked) [AS-02] | 370 nm
3 | CCC(C)Oc1c(OC)cc(/C=C/c2ccc(/C=C/c3cc(OC)c(OC4CCCCC4)c(OC)c3)cc2)cc1OC (centres unmarked) [AS-03] | 371 nm
4 | CCC(C)Oc1c(OC)cc(/C=C/c2ccc(/C=C/c3cc(OC)c(OC4CCCC4)c(OC)c3)cc2)cc1OC (centres unmarked) [AS-04] | 371 nm
5 | CCC(C)Oc1c(OC)cc(/C=C/c2ccc(/C=C/c3cc(OC)c(OCCO)c(OC)c3)cc2)cc1OC (centres unmarked) [AS-05] | 371 nm
